Laboratory results: PubChem BioAssay AID1963972 (Molecular Pharmacology Branch, DTP, NCI, 2024)

System: 945468-187-T-J2-PDC spheroids viability
Assay: Anticancer human tumor 945468-187-T-J2-PDC patient-derived rectal carcinoma cell line growth inhibition [PI3K]
Conditions: spheroids with HUVEC and MSC; for IC50: curve of first compound; for viability, T/C: stronger effect = lower value
Outline: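 High-throughput combination screen: PI3K inhibitors crossed with targeted small molecules on complex spheroids of tumor cells, HUVEC and MSCs at 37 degrees C, 5% CO2. Top concentration was at or near clinical Cmax (otherwise 10 microM), with half-log decrements.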

[1] = second compound 0.00316 µM, first compound 0.0316 µM
[2] = second compound 0.00316 µM, first compound 0.1 µM
[3] = second compound 0.01 µM, first compound 0.0316 µM
[4] = second compound 0.01 µM, first compound 0.1 µM
[5] = second compound 0.0316 µM, first compound 0.0316 µM
[6] = second compound 0.0316 µM, first compound 0.1 µM
[7] = second compound 0.1 µM, first compound 0.0316 µM
[8] = second compound 0.1 µM, first compound 0.1 µM
[9] = second compound 0.316 µM, first compound 0.0316 µM
[10] = second compound 0.316 µM, first compound 0.1 µM
[11] = second compound 1 µM, first compound 0.0316 µM
[12] = second compound 1 µM, first compound 0.1 µM
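Also: spheroids exposed to compounds for seven days before reading.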

CC(C)NCC(C(=O)N1CCN(c2ncnc3c2C(C)CC3O)CC1)c1ccc(Cl)cc1 (centres undefined) + CC(Nc1ccc2c(c1)OCCn1cc(N3C(=O)OCC3C(F)F)nc1-2)C(N)=O
IC50 (second compound 0.00316 µM): > 10 µM
IC50 (second compound 0.01 µM): > 10 µM
IC50 (second compound 0.0316 µM): > 10 µM
IC50 (second compound 0.1 µM): > 10 µM
IC50 (second compound 0.316 µM): > 10 µM
IC50 (second compound 1 µM): > 10 µM
viability, T/C [1]: 84.4%
viability, T/C [2]: 114%
viability, T/C (second compound 0.00316 µM, first compound 0.316 µM): 79.4%
viability, T/C (second compound 0.00316 µM, first compound 1 µM): 86.4%
viability, T/C (second compound 0.00316 µM, first compound 3.16 µM): 104%
viability, T/C (second compound 0.00316 µM, first compound 10 µM): 99.3%
viability, T/C [3]: 110%
viability, T/C [4]: 92.3%
viability, T/C (second compound 0.01 µM, first compound 0.316 µM): 96.2%
viability, T/C (second compound 0.01 µM, first compound 1 µM): 71.6%
viability, T/C (second compound 0.01 µM, first compound 3.16 µM): 97.7%
viability, T/C (second compound 0.01 µM, first compound 10 µM): 98.9%
viability, T/C [5]: 93.6%
viability, T/C [6]: 89.5%
viability, T/C (second compound 0.0316 µM, first compound 0.316 µM): 95.2%
viability, T/C (second compound 0.0316 µM, first compound 1 µM): 90.7%
viability, T/C (second compound 0.0316 µM, first compound 3.16 µM): 96.9%
viability, T/C (second compound 0.0316 µM, first compound 10 µM): 92.9%
viability, T/C [7]: 121%
viability, T/C [8]: 77.1%
viability, T/C (second compound 0.1 µM, first compound 0.316 µM): 82.8%
viability, T/C (second compound 0.1 µM, first compound 1 µM): 81.3%
viability, T/C (second compound 0.1 µM, first compound 3.16 µM): 89.9%
viability, T/C (second compound 0.1 µM, first compound 10 µM): 78.4%
viability, T/C [9]: 72.5%
viability, T/C [10]: 77.2%
viability, T/C (second compound 0.316 µM, first compound 0.316 µM): 76.2%
viability, T/C (second compound 0.316 µM, first compound 1 µM): 87%
viability, T/C (second compound 0.316 µM, first compound 3.16 µM): 84.2%
viability, T/C (second compound 0.316 µM, first compound 10 µM): 81.9%
viability, T/C [11]: 76.5%
viability, T/C [12]: 65.3%
viability, T/C (second compound 1 µM, first compound 0.316 µM): 75.6%
viability, T/C (second compound 1 µM, first compound 1 µM): 71.2%
viability, T/C (second compound 1 µM, first compound 3.16 µM): 68.5%
viability, T/C (second compound 1 µM, first compound 10 µM): 59.7%

Cn1ncnc1[C@H]1c2n[nH]c(=O)c3cc(F)cc(c23)N[C@@H]1c1ccc(F)cc1 + CC(Nc1ccc2c(c1)OCCn1cc(N3C(=O)OCC3C(F)F)nc1-2)C(N)=O
IC50 (second compound 0.00316 µM): > 0.1 µM
IC50 (second compound 0.01 µM): > 0.1 µM
IC50 (second compound 0.0316 µM): > 0.1 µM
IC50 (second compound 0.1 µM): > 0.1 µM
IC50 (second compound 0.316 µM): > 0.1 µM
IC50 (second compound 1 µM): > 0.1 µM
viability, T/C (second compound 0.00316 µM, first compound 0.000316 µM): 103%
viability, T/C (second compound 0.00316 µM, first compound 0.001 µM): 114%
viability, T/C (second compound 0.00316 µM, first compound 0.00316 µM): 105%
viability, T/C (second compound 0.00316 µM, first compound 0.01 µM): 86.6%
viability, T/C [1]: 92.6%
viability, T/C [2]: 99.7%
viability, T/C (second compound 0.01 µM, first compound 0.000316 µM): 131%
viability, T/C (second compound 0.01 µM, first compound 0.001 µM): 99.1%
viability, T/C (second compound 0.01 µM, first compound 0.00316 µM): 107%
viability, T/C (second compound 0.01 µM, first compound 0.01 µM): 84.5%
viability, T/C [3]: 110%
viability, T/C [4]: 123%
viability, T/C (second compound 0.0316 µM, first compound 0.000316 µM): 129%
viability, T/C (second compound 0.0316 µM, first compound 0.001 µM): 139%
viability, T/C (second compound 0.0316 µM, first compound 0.00316 µM): 100%
viability, T/C (second compound 0.0316 µM, first compound 0.01 µM): 98.8%
viability, T/C [5]: 96.3%
viability, T/C [6]: 123%
viability, T/C (second compound 0.1 µM, first compound 0.000316 µM): 87.6%
viability, T/C (second compound 0.1 µM, first compound 0.001 µM): 112%
viability, T/C (second compound 0.1 µM, first compound 0.00316 µM): 96.8%
viability, T/C (second compound 0.1 µM, first compound 0.01 µM): 89.1%
viability, T/C [7]: 118%
viability, T/C [8]: 102%
viability, T/C (second compound 0.316 µM, first compound 0.000316 µM): 82.3%
viability, T/C (second compound 0.316 µM, first compound 0.001 µM): 103%
viability, T/C (second compound 0.316 µM, first compound 0.00316 µM): 100%
viability, T/C (second compound 0.316 µM, first compound 0.01 µM): 88%
viability, T/C [9]: 99.7%
viability, T/C [10]: 99.6%
viability, T/C (second compound 1 µM, first compound 0.000316 µM): 77.1%
viability, T/C (second compound 1 µM, first compound 0.001 µM): 84.3%
viability, T/C (second compound 1 µM, first compound 0.00316 µM): 75.9%
viability, T/C (second compound 1 µM, first compound 0.01 µM): 84.9%
viability, T/C [11]: 79.2%
viability, T/C [12]: 77.2%
